Entries after “also recorded” stand apart in the source; their conditions may differ.
Test system: healthy human volunteers
Assay: Single ascending dose, placebo-controlled phase I study: adverse events, tolerability, MTD
Format: in vivo
Settings: for Severity grade: CTCAE v4.0
Procedure: This was a single ascending dose, placebo-controlled, randomized, double blind trial. Randomization was carried out by computer generated random number sequence. Randomization was carried out for the drug and the placebo in a 3 : 1 ratio for each dose level. The drugs were dispensed in sealed bottles with the randomization code written on them. Randomization codes were provided in sealed opaque envelopes with the protocol specification that the codes may be opened by the investigator only in case of a serious or severe adverse event.
This was used to obtain a dose of 96 mg for a 60 kg person. […] The following dose levels were evaluated: 80, 160, 320, 400, 500, 600, and 700 mg. The starting dose was calculated by allometric scaling from animals. At each dose level, six volunteers received CDRI 97/78 and two received placebo except at 700 mg where only two volunteers were given this dose. At each dose level, volunteers were assessed before proceeding to the next dose.
The decision to stop the dose escalation was based on the appearance of the dose limiting toxicity (DLT) which was defined as the dose at which any of the following appeared: severe nausea, vomiting, heartburn, headache, remarkable change in vital parameters such as blood pressure, heart rate, respiratory rate or oxygen saturation of blood, changes in QT interval, or any event that in the opinion of the investigators required stopping of the trial.
In case this was not achieved, it was planned not to dose volunteers beyond 700 mg.
The volunteers after giving informed consent were screened. The screening process was done latest within 1 month of admission for dosing. The volunteers who fulfilled the inclusion/exclusion criteria were admitted in the CPU the night before drug administration. Standardized dinner was served at 9 pm the night prior to dosing. On day 0, baseline blood sample for biochemical and haematological examination and stool and urine samples for routine and microscopy were taken. They received the study drug, according to the randomization sequence, under supervision. The empty packaging was returned to the container. The volunteers received drug as per randomization. Breakfast was given half an hour after drug administration. Subsequently, standardized lunch and dinner were served to the volunteers.
The subjects were attached to a cardiac monitor and vital HR, BP, ECG, oxygen saturation, and RR were recorded. Corrected QT interval using Fridericia's formula was calculated. […] Unscheduled monitoring was undertaken whenever it felt necessary. […] At the end of the 7th day, they were said to have completed the study. […] The study was monitored by a Data Safety Monitoring Board.

[1] = AE Heaviness of head, 80 mg group
[2] = AE Visual disturbances, 320 mg group
[3] = single oral dose 80-700 mg, healthy male volunteers
[4] = volunteers given 500 mg, 600 mg (and placebo)

## C=C(c1ccc(OC(C)(C)COC(=O)CCC(=O)O)cc1)C1COC2(OO1)C1CC3CC(C1)CC2C3 (stereo not drawn) [CDRI 97/78, Mono[2methyl2[3(1spiro[tricycle[3.3.1.13,7]decane2,3′-[1,2,4]trioxan] 6′-ylethenyl)phenoxy]propyl] ester]
80 mg, Heaviness of head
  No. of events: 1
160 mg
  Type of adverse events: None
320 mg, Visual disturbance
  No. of events: 1
400 mg, Bradycardia
  No. of events: 1
400 mg, Drowsiness
  No. of events: 1
400 mg, Itching
  No. of events: 1
500 mg, Nausea
  No. of events: 1
500 mg, Sedation
  No. of events: 1
600 and 700 mg, Sedation
  No. of events: 1
AE Bradycardia, 400 mg group
  Causality assessment: Possible (possible (>5% but ≤50% chance of being drug related)
  Duration of AE: 60 min
  Reversal complete (yes or no): Yes
  Spontaneous reversal (yes or no): Yes
  Time (hrs) of onset after drug administration: 1 h
  Treatment given: None
  Severity grade: 1
AE Drowsiness, 400 mg group
  Causality assessment: Possible (possible (>5% but ≤50% chance of being drug related)
  Duration of AE: 60 min
  Reversal complete (yes or no): Yes
  Spontaneous reversal (yes or no): Yes
  Time (hrs) of onset after drug administration: 2 h
  Treatment given: None
  Severity grade: 1
[1]
  Causality assessment: Possible (possible (>5% but ≤50% chance of being drug related)
  Duration of AE: 15 min
  Reversal complete (yes or no): Yes
  Spontaneous reversal (yes or no): Yes
  Time (hrs) of onset after drug administration: 0.25 h
  Treatment given: None
  Severity grade: 1
AE Itching, 400 mg group
  Causality assessment: Possible (possible (>5% but ≤50% chance of being drug related)
  Duration of AE: 8 min
  Reversal complete (yes or no): Yes
  Spontaneous reversal (yes or no): Yes
  Time (hrs) of onset after drug administration: 24 h
  Treatment given: None
  Severity grade: 1
AE Nausea, 500 mg group
  Causality assessment: Possible (possible (>5% but ≤50% chance of being drug related)
  Duration of AE: 20 min
  Reversal complete (yes or no): Yes
  Spontaneous reversal (yes or no): Yes
  Time (hrs) of onset after drug administration: 0.25 h
  Treatment given: None
  Severity grade: 1
AE Sedation, 500 mg group
  Causality assessment: Possible (possible (>5% but ≤50% chance of being drug related)
  Duration of AE: 120 min
  Reversal complete (yes or no): Yes
  Spontaneous reversal (yes or no): Yes
  Time (hrs) of onset after drug administration: 2 h
  Treatment given: None
  Severity grade: 1-2
AE Sedation, 600 mg group
  Causality assessment: Possible (possible (>5% but ≤50% chance of being drug related)
  Duration of AE: 60 min
  Reversal complete (yes or no): Yes
  Spontaneous reversal (yes or no): Yes
  Time (hrs) of onset after drug administration: 2 h
  Treatment given: None
  Severity grade: 1-2
[2]
  Causality assessment: Remote (remote (<5% chance of being drug related))
  Duration of AE: 2 to 3 min
  Reversal complete (yes or no): Yes
  Spontaneous reversal (yes or no): Yes
  Time (hrs) of onset after drug administration: 36 h
  Treatment given: None
  Severity grade: 1
Adverse event bradycardia
  Heart rate during adverse event bradycardia: 56-57 bpm
All dose levels, P = 0.43
  Incidence of adverse events, drug vs placebo groups: no significant difference
Single oral dose 80-700 mg
  Serious adverse events: No serious adverse events were reported
[3]
  MTD (maximum tolerated dose): not reached; also recorded: could not be determined
  Tolerability / safety: well tolerated; also recorded: safe and tolerable
[4]
  Sedation: duration: 1 to 2 h
  Sedation: time of onset after drug administration: about 2 hours
